From US20190060311A1, “COMPOSITIONS AND METHODS FOR TREATMENT OF VITILIGO” (ACLARIS THERAPEUTICS, INC., priority 2017, published 2019)
Counter-ions that a name gives are not always drawn.

What was measured:
[1] = test system: destruction of melanocytes; experiment: Harris mouse model of vitiligo (adoptive transfer of TCR transgenic T cells), in-life vitiligo scoring; format: in vivo; conditions: both doses (50 and 100 mg/kg), oral gavage QD, scored 5 weeks after initiation of dosing
Source text: The primary driver of vitiligo is an autoimmune attack on melanocytes, the cells which give skin its color. The initiating event(s) for this autoimmune attack is unknown, however the key cell type driving the destruction of the melanocytes is the CD8+ cytolytic T cell (CTL). A major cytokine that drives the activation/function of these CTL is IFNy, whose receptor signals via JAK1 and JAK2. Drugs that block the function of JAK1 or JAK2 would be predicted to be efficacious in reversing the autoimmune destruction of melanocytes, and this has been confirmed with pilot studies using tofacitinib (an inhibitor of JAK3/JAK1/JAK2) and ruxolitinib (an inhibitor of JAK1/JAK2). The development of novel therapeutics for treatment of vitiligo would be facilitated by an animal model of disease that specifically recapitulates the key features of the disease (IFNγ CD8+ CTL driven destruction of melanocytes). Dr. John Harris of the University of Massachusetts Medical School has developed such a model. […] Attempted induction of disease is then accomplished using a proprietary method and is measured by the degree of melanocyte destruction. […] In FIG. 1, each symbol represents an individual animal, scored 5 weeks after initiation of dosing. Statistical significance was determined with the Student's T test.

[2] = Plasma drug levels after oral gavage in the mouse vitiligo model; format: in vivo; conditions: oral gavage QD, post dose
[3] = test system: non-segmental facial vitiligo; experiment: Open-label clinical trial, topical treatment of non-segmental facial vitiligo; format: in vivo; conditions: 0.46% (w/w) topical solution twice daily; as early as 4 weeks after initiating treatment
Source text: Subjects with a clinical diagnosis of new onset or actively progressing non-segmental facial vitiligo or worsening of existing facial lesions within the past 6 months were enrolled in an open-label clinical trial and treated with a 0.46% (w/w) topical solution formulation of 5-((2-((4-fluoro-3-methoxy-5-methylphenyl)amino)-5-methylpyrimidin-4-yl)amino)benzo[d]oxazol-2(3H)-one hydrochloride applied twice daily for 24 weeks by the protocol-prescribed method.
It is anticipated that the treatment will be judged to be safe and tolerable.

[4] = test system: autoimmune destruction of melanocytes; conditions: pilot studies; cited from earlier work

Row | time plasma drug levels were above the EC50 for blockade of IFNγ signaling ([2]; 50 mg/kg) [h] | time plasma drug levels were above the EC50 for blockade of IFNγ signaling ([2]; 100 mg/kg) [h] | Compound | efficacy in the model (vitiligo score, FIG. 1) [1] | improvement of disease (pigmentation at lesion borders, repigmentation, Facial VASI index) [3] | efficacious in reversing the autoimmune destruction of melanocytes [4]
1 | 6 | 20 | COc1cc(Nc2ncc(C)c(Nc3ccc4oc(=O)[nH]c4c3)n2)cc(C)c1F [5-((2-((4-fluoro-3-methoxy-5-methylphenyl)amino)-5-methylpyrimidin-4-yl)amino)benzo[d]oxazol-2(3H)-one hydrochloride] | excellent efficacy | early improvement in their disease | –
2 | – | – | N#CC[C@H](C1CCCC1)n1cc(-c2ncnc3[nH]ccc23)cn1 [ruxolitinib, (R)-3-(4-(7H-pyrrolo[2,3-d]pyrimidin-4-yl)-1H-pyrazol-1-yl)-3-cyclopentylpropanenitrile] | – | – | confirmed
3 | – | – | C[C@@H]1CCN(C(=O)CC#N)C[C@@H]1N(C)c1ncnc2[nH]ccc12 [tofacitinib, 3-{(3R,4R)-4-methyl-3-[methyl-(7H-pyrrolo[2,3-d]pyrimidin-4-yl)-amino]-piperidin-1-yl}-3-oxo-propionitrile] | – | – | confirmed
